# Laboratory results reported in patent US9481648B2, “Kinase inhibitors” (Respivert Limited, priority 2013, dated 2016).
# Experiments:
# GSK 3α = GSK 3α (Homo sapiens (Human), UniProt P49840); assay: GSK 3α enzyme inhibition (FRET, Z-LYTE; Method 2); format: biochemical; settings: read-out: IC50 Values for Enzyme Inhibition GSK3α
# Outline: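 Z-LYTE FRET assay: GSK3-α (500 ng/mL stock) preincubated 105 min at RT with compound at 10, 1, 0.1 or 0.01 μg/mL stock. FRET peptide (8 μM stock) and ATP (40 μM stock) were then added for 1 h, followed by protease development for 1 h. Phosphorylation was read as coumarin/fluorescein emission ratio.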
# c-Src = c-Src (Homo sapiens (Human), UniProt P12931); assay: c-Src enzyme inhibition (FRET, Z-LYTE); format: biochemical
# c-Src, sequence (P12931 whole entry, looked up): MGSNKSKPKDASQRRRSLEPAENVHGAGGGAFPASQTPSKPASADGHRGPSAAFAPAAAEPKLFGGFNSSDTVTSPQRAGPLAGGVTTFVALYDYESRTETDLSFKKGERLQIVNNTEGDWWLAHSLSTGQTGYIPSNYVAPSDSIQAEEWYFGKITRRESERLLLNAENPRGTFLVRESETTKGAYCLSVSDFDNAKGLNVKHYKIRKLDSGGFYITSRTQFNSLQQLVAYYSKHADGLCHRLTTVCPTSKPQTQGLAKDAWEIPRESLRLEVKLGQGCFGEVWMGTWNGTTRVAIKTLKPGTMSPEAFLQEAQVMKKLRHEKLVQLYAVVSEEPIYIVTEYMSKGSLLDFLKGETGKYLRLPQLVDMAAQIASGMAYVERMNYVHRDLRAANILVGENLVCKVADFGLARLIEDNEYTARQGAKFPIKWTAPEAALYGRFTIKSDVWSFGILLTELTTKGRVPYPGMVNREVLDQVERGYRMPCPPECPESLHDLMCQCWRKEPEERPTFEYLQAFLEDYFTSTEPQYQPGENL
# Method: (§1) The enzyme inhibitory activities of compounds disclosed herein are determined by FRET using synthetic peptides labelled with both donor and acceptor fluorophores (Z-LYTE, Invitrogen Ltd., Paisley, UK).
# (§2) The relevant enzyme (3000 ng/mL or 2000 ng/mL respectively, 2.5 μL) is incubated with the test compound (either 1 μg/mL, 0.1 μg/mL, 0.01 μg/mL, or 0.001 μg/mL, 2.5 μL each) for 2 hr at RT. The FRET peptides (8 μM, 2.5 μL), and appropriate ATP solutions (2.5 μL, 800 μM for c-Src, and 60 μM ATP for Syk) are then added to the enzymes/compound mixtures and the mixture incubated for 1 hr. Development reagent (protease, 5 μL) is added for 1 hr prior to detection in a fluorescence microplate reader (Varioskan® Flash, ThermoFisher Scientific).
# (§3) In all cases, the site-specific protease cleaves non-phosphorylated peptide only and eliminates the FRET signal. Phosphorylation levels of each reaction are calculated using the ratio of coumarin emission (donor) over fluorescein emission (acceptor), for which high ratios indicate high phosphorylation and low ratios indicate low phosphorylation levels.
# Syk = Syk (Homo sapiens (Human), UniProt P43405); assay: Syk enzyme inhibition (FRET, Z-LYTE); format: biochemical
# Method: as §1, §2, §3
# [1] = tested on: β-catenin in d-U937 cells; assay: Accumulation of β catenin in d-U937 cells (assay m); format: cell-based, human
# Method: U937 cells, a human monocytic cell line, are differentiated into macrophage-type cells by incubation with PMA (100 ng/mL) for between 48 to 72 hr. The cells are then incubated with either final concentrations of test compound or vehicle for 18 hr. The induction of β-catenin by the test compounds is stopped by replacing the media with 4% formaldehyde solution. Endogenous […] is neutralised by incubating with quenching buffer (100 μL, 0.1% sodium azide, 1% H2O2 in PBS with 0.05% Tween-20) for 20 min. The cells are washed with washing buffer (200 μL; PBS containing 0.05% Tween-20) and incubated with blocking solution (200 μL; 5% milk in PBS) for 1 hr, re-washed with washing buffer (200 μL) and then incubated overnight with anti-β-catenin antibody solution (50 μL) in 1% BSA/PBS (BD, Oxford, UK).
# After washing with washing buffer (3×200 μL; PBS containing 0.05% Tween-20), cells are incubated with a HRP-conjugated secondary antibody solution (100 μL) in 1% BSA/PBS (Dako, Cambridge, UK) and the resultant signal is determined colourimetrically (OD: 450 nm with a reference wavelength of 655 nm) using TMB substrate (50 μL; R&D Systems, Abingdon, UK). This reaction is stopped by addition of 1N H2SO4 solution (50 μL). Cells are then washed with washing buffer and 2% crystal violet solution (50 μL) is applied for 30 min. After washing with washing buffer (3×200 μL), 1% SDS (100 μL) is added to each well and the plates are shaken lightly for 1 hr prior to measuring the absorbance at 595 nm (Varioskan® Flash, Thermo-Fisher Scientific).
# The measured OD450-655 readings are corrected for cell number by dividing the OD450-655 by the OD595 readings.
# p38 MAPKα (MAPK14) = p38 MAPKα (MAPK14) (Homo sapiens (Human), UniProt Q16539); assay: p38 MAPKα enzyme inhibition (FRET, Z-LYTE; Method 2); format: biochemical
# p38 MAPKα (MAPK14), sequence (Q16539 whole entry): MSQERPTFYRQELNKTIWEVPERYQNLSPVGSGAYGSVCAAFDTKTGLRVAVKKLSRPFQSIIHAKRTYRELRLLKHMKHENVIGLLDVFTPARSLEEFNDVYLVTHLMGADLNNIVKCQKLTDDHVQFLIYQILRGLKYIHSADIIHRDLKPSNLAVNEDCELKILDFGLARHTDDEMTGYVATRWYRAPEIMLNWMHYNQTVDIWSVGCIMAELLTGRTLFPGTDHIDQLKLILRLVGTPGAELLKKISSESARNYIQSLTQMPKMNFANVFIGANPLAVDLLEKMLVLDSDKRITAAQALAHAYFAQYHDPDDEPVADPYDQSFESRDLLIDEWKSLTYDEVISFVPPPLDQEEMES
# Method: as §1
# The inhibitory activities of test compounds against the p38 MAPKα isoform (MAPK14: Invitrogen) are evaluated indirectly by determining the level of activation\phosphorylation of the down-stream molecule, MAPKAP-K2. The p38 MAPKα protein (80 ng/mL, 2.5 μL) is mixed with the test compound (2.5 μL of either 4 μg/mL, 0.4 μg/mL, 0.04 μg/mL or 0.004 μg/mL) for 2 hr at RT. […] The mixture is incubated for 1 hr at RT. Development reagent (protease, 5 μL) is added for 1 hr prior to detection in a fluorescence microplate reader (Vanoskan® Flash, ThermoFisher Scientific).
# as §3
# GSK 3α, sequence (P49840 whole entry): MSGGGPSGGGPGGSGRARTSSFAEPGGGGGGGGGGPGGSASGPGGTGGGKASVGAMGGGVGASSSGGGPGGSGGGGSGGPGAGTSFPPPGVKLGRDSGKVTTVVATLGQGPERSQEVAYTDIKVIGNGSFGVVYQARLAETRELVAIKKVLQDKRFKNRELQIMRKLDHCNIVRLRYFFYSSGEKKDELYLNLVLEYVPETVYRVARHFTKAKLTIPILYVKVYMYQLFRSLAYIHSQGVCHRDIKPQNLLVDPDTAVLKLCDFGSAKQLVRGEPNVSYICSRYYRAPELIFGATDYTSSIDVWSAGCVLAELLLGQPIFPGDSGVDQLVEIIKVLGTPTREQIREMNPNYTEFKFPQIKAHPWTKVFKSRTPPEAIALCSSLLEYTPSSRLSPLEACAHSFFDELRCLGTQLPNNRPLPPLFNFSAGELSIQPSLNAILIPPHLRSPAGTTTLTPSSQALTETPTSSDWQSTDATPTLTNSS
IC50 (GSK 3α) [nM],IC50 (c-Src) [nM],IC50 (Syk) [nM],IC50 (p38 MAPKα (MAPK14)) [nM],Structure (SMILES),% β-catenin induction ([1]; test compound 1 μg/mL) [%],% β-catenin induction ([1]; test compound 5 μg/mL) [%],% β-catenin induction ([1]; test compound 10 μg/mL) [%]
2160,39,455,145,"COCCOCCOCCOCCOCCOCCOCCOc1cc(Nc2cc(Oc3ccc(NC(=O)Nc4cc(C(C)(C)C)cc(NS(C)(=O)=O)c4OC)c4ccccc34)ccn2)cc(OC)c1 [Example 45, N-(3-(3-(4-((2-((3-(2,5,8,11,14,17,20-Heptaoxadocosan-22-yloxy)-5-methoxyphenyl)-amino)pyridin-4-yl)oxy)naphthalen-1-yl)ureido)-5-(tert-butyl)-2-methoxyphenyl)methanesulfonamide]",−4,−7,−14
1600,15,169,92,"COc1cc(Nc2cc(Oc3ccc(NC(=O)Nc4cc(C(C)(C)C)cc(C(N)=O)c4OC)c4ccccc34)ccn2)cc(C(=O)NCCN2CCOCC2)c1 [Example 47, 3-((4-((4-(3-(5-(tert-Butyl)-3-carbamoyl-2-methoxyphenyl)ureido)naphthalen-1-yl)oxy)pyridin-2-yl)amino)-5-methoxy-N-(2-morpholinoethyl)benzamide]",−5,4,8
5030,45,490,229,"C#Cc1cc(Nc2cc(Oc3ccc(NC(=O)Nc4cc(C(C)(C)C)cc(C(N)=O)c4OC)c4ccccc34)ccn2)cc(C(=O)NCCN2CCOCC2)c1 [Example 48, 3-((4-((4-(3-(5-(tert-Butyl)-3-carbamoyl-2-methoxyphenyl)ureido)naphthalen-1-yl)oxy)pyridin-2-yl)amino)-5-ethynyl-N-(2-morpholinoethyl)benzamide]",−2,−4,−3

# The next lines start with the compound.
Structure (SMILES),IC50 (GSK 3α) [nM],IC50 (c-Src) [nM],IC50 (Syk) [nM],IC50 (p38 MAPKα (MAPK14)) [nM],% β-catenin induction ([1]; test compound 1 μg/mL) [%],% β-catenin induction ([1]; test compound 5 μg/mL) [%],% β-catenin induction ([1]; test compound 10 μg/mL) [%]
"COCCOCCOCCOCCOCCOCCOCCOc1cc(Nc2nccc(Oc3ccc(NC(=O)Nc4cc(C(C)(C)C)cc(NS(C)(=O)=O)c4OC)c4ccccc34)n2)cc(OC)c1 [Example 14, N-(3-(3-(4-((2-((3-(2,5,8,11,14,17,20-Heotaoxadocosan-22-yloxy)-5-methoxyphenyl)amino)-pyrimidin-4-yl)oxy)naphthalen-1-yl)ureido)-5-(tert-butyl)-2-methoxyphenyl)-methanesulfonamide]",1010,11,106,49,0,16,14
"COCCOCCOCCOc1cc(Nc2nccc(Oc3ccc(NC(=O)Nc4cc(C(C)(C)C)cc(NS(C)(=O)=O)c4OC)c4ccccc34)n2)cc(OC(F)F)c1 [Example 17, N-(5-(tert-Butyl)-3-(3-(4-((2-((3-(difluoromethoxy)-5-(2-(2-(2-methoxyethoxy)ethoxy)-ethoxy)phenyl)amino)pyrimidin-4-yl)oxy)naphthalen-1-yl)ureido)-2-methoxyphenyl)-methanesulfonamide]",5460,40,149,179,5,23,23
"COc1cc(Nc2nccc(Oc3ccc(NC(=O)Nc4cc(C(C)(C)C)cc(NS(C)(=O)=O)c4OC)c4ccccc34)n2)cc(OCCOCCOCCN2CCOCC2)c1 [Example 18, N-(5-(tert-Butyl)-2-methoxy-3-(3-(4-((2-((3-methoxy-5-(2-(2-(2-mormholinoethoxy)ethoxy)-ethoxy)phenyl)amino)pyrimidin-4-yl)oxy)naphthalen-1-yl)ureido)phenyl)methanesulfonamide]",3120,10,76,52,1,9,17
"COCCOCCOCCOc1cc(Nc2nccc(Oc3ccc(NC(=O)Nc4cc(C(C)(C)C)cc(C(N)=O)c4OC)c4ccccc34)n2)cc(OC)c1 [Example 20, 5-(tert-Butyl)-2-methoxy-3-(3-(4-((2-((3-methoxy-5-(2-(2-(2-methoxyethoxy)ethoxy)-ethoxy)phenyl)amino)pyrimidin-4-yl)oxy)naphthalen-1-yl)ureido)benzamide]",748,6,29,33,4,31,29
"COCCOCCOCCOc1cc(Nc2nccc(Oc3ccc(NC(=O)Nc4cc(NS(C)(=O)=O)cc(C(C)(C)C)c4)c4ccccc34)n2)cc(OC)c1 [Example 24, N-(3-(tert-Butyl)-5-(3-(4-((2-((3-methoxy-5-(2-(2-(2-methoxyethoxy)ethoxy)ethoxy)-phenyl)amino)pyrimidin-4-yl)oxy)naphthalen-1-yl)ureido)phenyl)methanesulfonamide]",680,14,549,30,−3,27,25
"COCCOCCOc1cc(Nc2nccc(Oc3ccc(NC(=O)Nc4cc(C(C)(C)C)cc(NS(C)(=O)=O)c4OC)c4ccccc34)n2)cc(OC)c1 [Example 36, N-(5-(tert-Butyl)-2-methoxy-3-(3-(4-((2-((3-methoxy-5-(2-(2-methoxyethoxy)ethoxy)-phenyl)amino)pyrimidin-4-yl)oxy)naphthalen-1-yl)ureido)phenyl)methanesulfonamide]",2090,16,67,69,−4,28,18
"C#Cc1cc(Nc2cc(Oc3ccc(NC(=O)Nc4cc(C(C)(C)C)cc(C(=O)NC)c4OC)c4ccccc34)ccn2)cc(C(=O)NCCN2CCOCC2)c1 [Example 39, 5-(tert-Butyl)-3-(3-(4-((2-((3-ethynyl-5-((2-morpholinoethyl)carbamoyl)phenyl)amino)-pyridin-4-yl)oxy)naphthalen-1-yl)ureido)-2-methoxy-N-methylbenzamide]",1600,29,571,140,−11,−12,−18
"COCCOCCOCCOc1cc(Nc2nccc(Oc3ccc(NC(=O)Nc4cc(C(C)(C)C)cc(C(=O)NCCN(C)C)c4OC)c4ccccc34)n2)cc(OC)c1 [Example 46, 5-(tert-Butyl)-N-(2-(dimethylamino)ethyl)-2-methoxy-3-(3-(4-((2-((3-methoxy-5-(2-(2-(2-methoxyethoxy)ethoxy)ethoxyl)phenyl)amino)pyrimidin-4-yl)oxy)naphthalen-1-yl)ureido)-benzamide]",636,15,20,110,−2,2,−29
